# Measured values reported in publication PMC9503446, “Effects of Medicinal Leech-Related Cationic Antimicrobial Peptides on Human Blood Cells and Plasma” (Molecules, 2022).
# No end group written: not given here.
# Assays:
# erythrocytes [1] = assay: Hemolysis assay in the presence of human serum albumin (HSA); format: cell-based; conditions: 50 μM peptide, 50 μM HSA, 0.5 h, 37 °C
# Experimental: Given that the normal HSA concentration in plasma is 500–700 μM and the dilution of plasma in the final, cell-containing samples was 1:10, a final HSA concentration of 50 μM was applied. Then, 100 μM CAMP working solutions were made up in PBS or PBS containing 100 μM or 70 μM HSA to give final concentrations of 50 μM CAMP and 50 μM or 35 μM HSA.
# (§1) The hemolytic activity of CAMPs was determined using a hemolysis assay measuring hemoglobin released from damaged cells. A working erythrocyte suspension (in PBS) was prepared so that its ten-fold dilution gave an optical density of 0.4 at 800 nm. This working suspension corresponded to a cell density of about 30 × 10^6 cells/mL. Aliquots of 125 μL of CAMP solutions of different concentrations were added to Eppendorf tubes. […] The supernatant (200 μL) was transferred to the wells of a microplate, and the absorbance of hemoglobin was measured by a Thermo Electron Multiskan Ascent microplate reader (Thermo Fisher Scientific Inc., Waltham, MA, USA), with a test wavelength of 414 nm as well as 540 nm and a background wavelength of 690 nm. The hemolysis percentage was calculated using the following equation: Hemolysis (%) = {(sample absorbance − negative control)/(positive control − negative control)} × 100.
# erythrocytes [2] = assay: Hemolysis assay, erythrocytes in PBS; format: cell-based, human; conditions: 0.5 h, 37 °C
# Experimental: Erythrocytes were incubated (0.5 h, 37 °C) with different CAMP concentrations ranging from 6.25 μM to 100 μM. Incubation conditions chosen were similar to those used in other studies. Following incubation, the samples were centrifuged, and the supernatant analyzed spectrophotometrically for hemoglobin at 414 nm and 540 nm. Absorption at 414 nm provides higher sensitivity. The results were the same no matter which wavelength was used to monitor for hemoglobin.
# as §1
# [3] = preparation of 2 mM stock solution; dissolved with PBS containing 4% DMSO
# Experimental: First, 2 mM stock solutions of CAMPs were prepared in PBS, except for the CAMPs pept_1 and pept_2. […] Its 2 mM solution was made up using PBS containing 4% DMSO (PBS/DMSO), which gave a final DMSO concentration not higher than 0.2% in any of experiments. […] Therefore, negative controls containing relevant concentrations of DMSO were run for pept_1 and pept_2, and DMSO contribution was eliminated by subtracting the measured value in the negative control samples from that in the test samples.
# Escherichia coli = assay: MIC determination, microtiter dilution; format: cell-based, Escherichia coli str. K12 substr. MG1655; conditions: present study, two-fold dilution series in MHB, 37 °C, 24 h, turbidity at 560 nm, mean of three independent experiments
# Experimental: CAMPs were designed and synthesized as described previously in our works. The minimum inhibitory concentrations (MICs) for the Gram-negative bacterium Escherichia coli and Gram-positive bacterium Bacillus subtilis were determined earlier or in the present study. The MIC values for Escherichia coli were the same or higher than those for Bacillus subtilis. The CAMP concentrations tested were in the range up to 100 μM.
# Escherichia coli str. K12 substr. MG1655 (Invitrogen) and Bacilus subtilis str. 168HT (Vavilov Institute of General Genetics, Russian Academy of Sciences, Moscow, Russia) were grown in Luria–Bertani broth (Difco, BD Difco, Thermo Fisher Scientific Inc., Waltham, MA, USA) according to standard procedure. Bacteria were stored with 10% glycerol at −70 °C until use. MIC determination was carried out by growing bacteria in 96-well microtitration plates in the presence of a two-fold dilution series of the peptide using the standard microtiter dilution method. Briefly, single bacterial clones were cultured overnight in Mueller–Hinton broth (MHB, BD Difco, Thermo Fisher Scientific Inc., Waltham, MA, USA) at 150 rpm and 37 °C, then transferred to fresh MHB and cultured until the logarithmic growth phase. […] After incubation at 37 °C for 24 h, the antimicrobial susceptibility was estimated by turbidity measurement at 560 nm using a microplate reader. […]
Substance,Inhibition of CAMP-induced hemolysis by HSA (erythrocytes [1]),"EC50 (erythrocytes [2]; hemolysis assay, rough estimate, read-out: Concentration at which 50% lysis was achieved, erythrocytes)",Solubility in PBS [3],"Hemolysis (erythrocytes [2]; 100 μM peptide in PBS, no plasma, Triton X-100 = 100%)",MIC (E. coli) (Escherichia coli)
FRIMRILRVLKL-NH2 [pept_1],nearly completely,65 µM,poorly soluble in PBS,,
FRIMRILRVLK-NH2 [pept_2],,,,10–15%,10 µM
